The subject of test [1] is M. turberculosis Dormancy Regulon. The note with it: Kumar et al., cited from earlier work.
In test [2] the test system is dos regulon genes (dosR, dosS, fdxA). Type of test: cell-based, M. bovis BCG.
Test [3] deals with KatG (Mycobacterium tuberculosis, UniProt P9WIE5). Kind of test: CO detection: KatG/tBHP activation, CO trapped by deoxyMyoglobin (MbCO, absorbance 540 nm). Type of test: biochemical.
Test [4] deals with dos regulon genes (dosR, dosS, fdxA). The class given is cell-based. The note with it: Mtb H37Rv treated for 4 hours; Real time PCR.

Structures are written as SMILES. Read-outs that look alike come from different tables or passages of the source.

KatG, sequence (P9WIE5 whole entry): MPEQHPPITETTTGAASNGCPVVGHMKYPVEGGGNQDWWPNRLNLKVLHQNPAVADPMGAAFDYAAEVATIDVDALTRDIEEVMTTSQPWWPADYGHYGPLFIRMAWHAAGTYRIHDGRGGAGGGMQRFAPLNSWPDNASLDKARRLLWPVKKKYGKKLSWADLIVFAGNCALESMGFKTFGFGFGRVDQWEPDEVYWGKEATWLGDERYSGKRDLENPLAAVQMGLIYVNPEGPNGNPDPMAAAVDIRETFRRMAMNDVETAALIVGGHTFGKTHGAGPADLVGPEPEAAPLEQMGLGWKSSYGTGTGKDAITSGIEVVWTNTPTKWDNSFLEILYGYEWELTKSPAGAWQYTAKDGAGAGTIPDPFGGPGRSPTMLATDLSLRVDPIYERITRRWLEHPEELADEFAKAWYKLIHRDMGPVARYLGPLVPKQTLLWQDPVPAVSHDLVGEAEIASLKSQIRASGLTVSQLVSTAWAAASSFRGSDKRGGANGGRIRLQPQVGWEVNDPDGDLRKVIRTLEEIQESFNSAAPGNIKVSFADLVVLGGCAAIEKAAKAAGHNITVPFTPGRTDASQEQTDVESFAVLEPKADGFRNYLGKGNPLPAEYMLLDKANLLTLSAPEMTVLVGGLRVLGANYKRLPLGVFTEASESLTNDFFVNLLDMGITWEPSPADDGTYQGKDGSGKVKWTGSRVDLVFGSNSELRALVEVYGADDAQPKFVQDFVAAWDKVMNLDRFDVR

With `[C-]#[O+]` [CO], the “+CO/−CO” value in test [1] (gene Rv0079) is given as 3.3; in test [1] (gene Rv0080), 2.9; in test [1] (gene Rv0081) it was 2.3; in test [1] (gene Rv0669), 6; in test [1] (gene Rv0670 nroZ) it was 3.2; in test [1] (gene Rv0671), 2.3. Also, the “+CO/−CO” value in test [1] (gene Rv0672) is 2.8; in test [1] (gene Rv0673 pncB2), 1.5; in test [1] (gene Rv0674), 1.7; in test [1] (gene Rv1733) it was 2.3; in test [1] (gene Rv1734), 2; in test [1] (gene Rv1735), 1.6. In addition, the “+CO/−CO” value in test [1] (gene Rv1736 narX) is reported as 2.4; in test [1] (gene Rv1737 narK2), 2.1; in test [1] (gene Rv1738), 5.8; in test [1] (gene Rv1812), 1.9; in test [1] (gene Rv1813), 5.1; in test [1] (gene Rv1996), 2.4. The “+CO/−CO” value in test [1] (gene Rv1997 ctpF) was 6.8; in test [1] (gene Rv2003), 3.3; in test [1] (gene Rv2004), 4.8; in test [1] (gene Rv2005) it was 6.7; in test [1] (gene Rv2006 otsB1), 2.6; in test [1] (gene Rv2007 foxA), 7.1. Moreover, the “+CO/−CO” value was 1.9 in test [1] (gene Rv2028); 6.6 in test [1] (gene Rv2029 pkfB); 9.2 in test [1] (gene Rv2030); 5.2 in test [1] (gene Rv2031 hsoX (acr)); 8.4 in test [1] (gene Rv2032 acg); 6.8 in test [1] (gene Rv2823 TB31.7). The “+CO/−CO” value in test [1] (gene Rv2824) is listed as 7.1; in test [1] (gene Rv2825), 2.2; in test [1] (gene Rv2826 hrp1), 10; in test [1] (gene Rv2827), 4.2; in test [1] (gene Rv2828), 6.8; in test [1] (gene Rv2829), 2.6. Besides, the “+CO/−CO” value is reported as 5.2 in test [1] (gene Rv2830); 2.7 in test [1] (gene Rv2831); 1.8 in test [1] (gene Rv3126); 2.7 in test [1] (gene Rv3127); 11 in test [1] (gene Rv3130 tgs1); 3.3 in test [1] (gene Rv3131). Also, the “+CO/−CO” value was 3.1 in test [1] (gene Rv3132 dos8 (devS)), 3 in test [1] (gene Rv3133 dosR (devR)) and 7.1 in test [1] (gene Rv3134).
Regarding `NNC(=O)c1ccncc1` [INH, Isoniazid], the “expression of dos regulon genes (dosR, dosS, fdxA)” value in test [2] and in test [4] was “significantly increased” each time. In test [3], the “CO produced from activated compound” value is “dependent upon dose, time, and KatG”.
Take `NC(=O)c1ccc[n+]([C@@H]2O[C@H](COP(=O)([O-])OP(=O)(O)OC[C@H]3O[C@@H](n4cnc5c(N)ncnc54)[C@H](O)[C@@H]3O)[C@@H](O)[C@H]2O)c1` [NAD+, NAD]: the “formation of MbCO (CO-Mb)” value in test [3] (various dosages, Kat G 22.44 μg per reaction, 1 mM tBHP) is on record as “inhibited”.

The values are drawn from patent publication US9579381B2 (priority 2012, dated 2017).
